Source: paper PMC5322872, “ALKBH7 Variant Related to Prostate Cancer Exhibits Altered Substrate Binding” (PLoS Computational Biology, 2017)

Molecular target: T1, ALKBH7 (Homo sapiens, UniProt Q9BT30)
T1 sequence (Q9BT30 17-215): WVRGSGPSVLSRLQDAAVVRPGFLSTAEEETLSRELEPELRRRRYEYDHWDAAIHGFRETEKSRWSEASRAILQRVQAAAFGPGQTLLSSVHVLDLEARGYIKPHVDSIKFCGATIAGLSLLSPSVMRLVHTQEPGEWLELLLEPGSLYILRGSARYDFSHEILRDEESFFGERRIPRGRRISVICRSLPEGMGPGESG
Test: anaerobic difference UV-Vis spectroscopy (MLCT transition at […] nm)
Format: binding
Conditions: 0.3 mM protein, 100 uM Fe(II), α-kg 2 mM in Fig 4 legend but 0.2 mM in Methods

For `O=C(O)CCC(=O)C(=O)O` [α-kg], the “anaerobic difference UV-Vis spectroscopy (MLCT transition at 510 nm)” value was “The spectrum of WT ALKBH7·Fe(II)·α-kg minus that of ALKBH7·α-kg revealed the typical weak MLCT transitions”.
